Test results taken from the Kinase Knowledgebase extract (Sharma et al. 2016).

Target: EGFR (UniProt P00533)
Sequence (P00533 whole entry, looked up): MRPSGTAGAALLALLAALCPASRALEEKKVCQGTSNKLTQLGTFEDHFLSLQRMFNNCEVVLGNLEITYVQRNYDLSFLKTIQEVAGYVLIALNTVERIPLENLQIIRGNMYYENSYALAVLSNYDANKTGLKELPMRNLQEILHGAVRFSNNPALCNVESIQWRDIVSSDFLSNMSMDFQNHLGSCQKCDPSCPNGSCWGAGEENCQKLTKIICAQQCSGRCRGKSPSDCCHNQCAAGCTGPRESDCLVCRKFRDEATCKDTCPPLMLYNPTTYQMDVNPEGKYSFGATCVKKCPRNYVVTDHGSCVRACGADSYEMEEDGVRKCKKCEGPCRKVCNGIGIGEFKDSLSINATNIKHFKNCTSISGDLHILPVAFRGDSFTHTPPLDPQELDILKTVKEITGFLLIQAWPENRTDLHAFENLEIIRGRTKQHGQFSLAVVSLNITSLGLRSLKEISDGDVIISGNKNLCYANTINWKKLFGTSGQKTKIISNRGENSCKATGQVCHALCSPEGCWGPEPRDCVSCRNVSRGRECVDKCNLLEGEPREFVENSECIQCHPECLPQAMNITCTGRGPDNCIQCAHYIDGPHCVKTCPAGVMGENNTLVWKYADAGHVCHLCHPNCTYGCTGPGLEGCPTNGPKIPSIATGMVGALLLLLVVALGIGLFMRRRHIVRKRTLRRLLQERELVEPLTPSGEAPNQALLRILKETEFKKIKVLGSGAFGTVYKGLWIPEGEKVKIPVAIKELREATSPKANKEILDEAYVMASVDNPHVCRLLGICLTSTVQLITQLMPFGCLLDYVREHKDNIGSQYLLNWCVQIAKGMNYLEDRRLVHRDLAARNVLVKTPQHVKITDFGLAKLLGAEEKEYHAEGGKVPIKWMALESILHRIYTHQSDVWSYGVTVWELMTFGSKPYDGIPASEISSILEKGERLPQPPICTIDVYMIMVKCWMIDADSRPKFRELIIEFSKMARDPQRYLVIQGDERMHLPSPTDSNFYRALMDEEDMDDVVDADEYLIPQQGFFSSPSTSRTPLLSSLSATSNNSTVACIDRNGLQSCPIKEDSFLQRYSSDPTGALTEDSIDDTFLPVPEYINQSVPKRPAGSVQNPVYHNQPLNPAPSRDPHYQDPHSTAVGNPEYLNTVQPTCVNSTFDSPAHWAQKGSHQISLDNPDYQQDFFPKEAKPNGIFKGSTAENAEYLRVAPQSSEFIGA

SMILES	IC50 [µM]
Nc1ncc(/C=C/c2cncnc2Nc2ccc(OCc3cccc(F)c3)c(Cl)c2)cn1	≤ 10
Fc1cccc(COc2ccc(Nc3ncncc3C#Cc3cn[nH]c3)cc2Cl)c1	≤ 10
O=Cc1ccccc1C#Cc1cncnc1Nc1ccc(OCc2cccc(F)c2)c(Cl)c1	≤ 10
NCc1cccc(C#Cc2cncnc2Nc2ccc(OCc3cccc(F)c3)c(Cl)c2)n1	≤ 10
Fc1cccc(COc2ccc(Nc3ncncc3C#Cc3nccs3)cc2Cl)c1	≤ 10
C(=C\c1cncnc1Nc1ccc2[nH]c(Cc3ccccc3)nc2c1)/c1cn[nH]c1	≤ 10
C(=C\c1cncnc1Nc1ccc2[nH]c(Cc3ccccc3)nc2c1)/c1ccccc1	≤ 10
CC(=O)Nc1cccc(C#Cc2cncnc2Nc2ccc(OCc3cccc(F)c3)c(Cl)c2)n1	≤ 10
CC(=O)Nc1cccc(C#Cc2cncnc2Nc2ccc(OCc3cccc(F)c3)c(Cl)c2)c1	≤ 10
COc1ccc(/C=C/c2cncnc2Nc2ccc(OCc3cccc(F)c3)c(Cl)c2)cc1OC	< 0.1
Fc1cccc(COc2ccc(Nc3ncncc3C#Cc3cccnc3)cc2Cl)c1	≤ 10
Nc1ncc(/C=C/c2cncnc2Nc2ccc3c(cnn3Cc3ccccc3)c2)cn1	≤ 10
O=C(Nc1cccc(C#Cc2cncnc2Nc2ccc(OCc3cccc(F)c3)c(Cl)c2)n1)C(F)(F)F	< 0.1
Fc1cccc(COc2ccc(Nc3ncncc3C#Cc3cccc(CN4CCNCC4)n3)cc2Cl)c1	≤ 10
CN(C)Cc1cccc(C#Cc2cncnc2Nc2ccc(OCc3cccc(F)c3)c(Cl)c2)n1	≤ 10
Fc1cccc(COc2ccc(Nc3ncncc3/C=C/c3ccncc3)cc2Cl)c1	< 0.1
CSCCC(=O)Nc1cccc(C#Cc2cncnc2Nc2ccc(OCc3cccc(F)c3)c(Cl)c2)c1	≤ 10
C(=C\c1cncnc1Nc1ccc2sc(Cc3ccccc3)nc2c1)/c1ccsc1	> 1
O=Cc1cccc(C#Cc2cncnc2Nc2ccc(OCc3cccc(F)c3)c(Cl)c2)c1	≤ 10
CNC(=O)c1cccc(/C=C/c2cncnc2Nc2ccc3[nH]c(Cc4ccccc4)nc3c2)c1	≤ 10
Nc1cccc(C#Cc2cncnc2Nc2ccc(OCc3cccc(F)c3)c(Cl)c2)c1	≤ 10
CC(=S)Nc1cccc(C#Cc2cncnc2Nc2ccc(OCc3cccc(F)c3)c(Cl)c2)c1	≤ 10
O=Cc1ccc(C#Cc2cncnc2Nc2ccc(OCc3cccc(F)c3)c(Cl)c2)o1	≤ 10
CS(=O)(=O)CCNC(=O)NCc1cccc(C#Cc2cncnc2Nc2ccc(OCc3cccc(F)c3)c(Cl)c2)n1	< 0.1
Fc1cccc(COc2ccc(Nc3ncncc3C#Cc3ncccn3)cc2Cl)c1	≤ 10
CSc1nccc(C#Cc2cncnc2Nc2ccc(OCc3cccc(F)c3)c(Cl)c2)n1	≤ 10
Fc1cccc(COc2ccc(Nc3ncncc3C#Cc3cccc(CNCCCn4ccnc4)n3)cc2Cl)c1	< 0.1

SMILES	IC50 [µM]
CN1CCN(Cc2cccc(C#Cc3cncnc3Nc3ccc(OCc4cccc(F)c4)c(Cl)c3)n2)CC1	≤ 10
CN(C)CCCC(=O)Nc1cccc(C#Cc2cncnc2Nc2ccc(OCc3cccc(F)c3)c(Cl)c2)n1	< 0.1
CC(=O)Nc1cccc(/C=C/c2cncnc2Nc2ccc3c(cnn3Cc3ccccc3)c2)c1	≤ 10
Fc1cccc(COc2ccc(Nc3ncncc3/C=C/c3cccnc3)cc2Cl)c1	≤ 10
Fc1cccc(COc2ccc(Nc3ncncc3C#Cc3cccc(CNCCN4CCOCC4)n3)cc2Cl)c1	0.1 to 1
COc1cccc(C#Cc2cncnc2Nc2ccc(OCc3cccc(F)c3)c(Cl)c2)n1	≤ 10
Cc1ccc(S(=O)(=O)n2ccc3ccc(C#Cc4cncnc4Nc4ccc(OCc5cccc(F)c5)c(Cl)c4)cc32)cc1	≤ 10
CC(=O)Nc1cccc(C#Cc2cncnc2Nc2ccc3c(cnn3Cc3ccccc3)c2)c1	≤ 10
Fc1cccc(COc2ccc(Nc3ncncc3C#Cc3ccnc(N4CCOCC4)n3)cc2Cl)c1	≤ 10
N=C(N)Nc1cccc(C#Cc2cncnc2Nc2ccc(OCc3cccc(F)c3)c(Cl)c2)c1	0.1 to 1
OCc1nc(C#Cc2cncnc2Nc2ccc(OCc3cccc(F)c3)c(Cl)c2)cs1	≤ 10
Fc1cccc(COc2ccc(Nc3ncncc3C#Cc3ccsc3)cc2Cl)c1	≤ 10
N#Cc1ccccc1C#Cc1cncnc1Nc1ccc(OCc2cccc(F)c2)c(Cl)c1	≤ 10
N#CCCNCc1cccc(C#Cc2cncnc2Nc2ccc(OCc3cccc(F)c3)c(Cl)c2)n1	≤ 10
COCCNC(=O)NCc1cccc(C#Cc2cncnc2Nc2ccc(OCc3cccc(F)c3)c(Cl)c2)n1	≤ 10
Fc1cccc(C#Cc2cncnc2Nc2ccc(OCc3cccc(F)c3)c(Cl)c2)c1	≤ 10
CC(=O)Nc1ccc(/C=C/c2cncnc2Nc2ccc(OCc3cccc(F)c3)c(Cl)c2)cn1	≤ 10
CS(=O)(=O)CCNc1cccc(C#Cc2cncnc2Nc2ccc(OCc3cccc(F)c3)c(Cl)c2)n1	> 1
CC(=O)Nc1cccc(/C=C/c2cncnc2Nc2ccc(OCc3cccc(F)c3)c(Cl)c2)c1	< 0.1
CS(=O)(=O)CCNCc1ccc(C#Cc2cncnc2Nc2ccc(OCc3cccc(F)c3)c(Cl)c2)o1	≤ 10
N#Cc1cccc(C#Cc2cncnc2Nc2ccc(OCc3cccc(F)c3)c(Cl)c2)c1	≤ 10
C(=C\c1cncnc1Nc1ccc2c(cnn2Cc2ccccc2)c1)/c1ccncc1	≤ 10
COC(=O)CCC(=O)Nc1cccc(C#Cc2cncnc2Nc2ccc(OCc3cccc(F)c3)c(Cl)c2)n1	0.1 to 1
Oc1ccc(C#Cc2cncnc2Nc2ccc(OCc3cccc(F)c3)c(Cl)c2)cc1	≤ 10
Nc1ccc(C#Cc2cncnc2Nc2ccc(OCc3cccc(F)c3)c(Cl)c2)cc1	≤ 10
N#CCCNC(=O)NCc1cccc(C#Cc2cncnc2Nc2ccc(OCc3cccc(F)c3)c(Cl)c2)n1	≤ 10

Other lines, results leading:

IC50 [µM]	SMILES
≤ 10	N#CCCNCc1ccc(C#Cc2cncnc2Nc2ccc(OCc3cccc(F)c3)c(Cl)c2)o1
≤ 10	CS(=O)(=O)CCNc1nc(C#Cc2cncnc2Nc2ccc(OCc3cccc(F)c3)c(Cl)c2)ncc1C#N
≤ 10	N#Cc1ccc(C#Cc2cncnc2Nc2ccc(OCc3ccc(F)cc3)c(Cl)c2)nc1N
≤ 10	CN(CCO)C(=O)NCc1cccc(C#Cc2cncnc2Nc2ccc(OCc3cccc(F)c3)c(Cl)c2)n1
≤ 10	CC(=O)NCc1cccc(C#Cc2cncnc2Nc2ccc(OCc3cccc(F)c3)c(Cl)c2)c1
≤ 10	Oc1cccnc1/C=C/c1cncnc1Nc1ccc(OCc2cccc(F)c2)c(Cl)c1
≤ 10	Fc1cccc(COc2ccc(Nc3ncncc3C#Cc3ccc4c(c3)CNCC4)cc2Cl)c1
≤ 10	CS(=O)(=O)CCNCc1cccc(C#Cc2cncnc2Nc2ccc(OCc3cccc(F)c3)c(Cl)c2)c1
≤ 10	C(=C\c1cncnc1Nc1ccc2[nH]c(Cc3ccccc3)nc2c1)/c1ccsc1
≤ 10	Fc1cccc(COc2ccc(Nc3ncncc3C#Cc3cccc(CN4CCOCC4)n3)cc2Cl)c1
≤ 10	Fc1cccc(COc2ccc(Nc3ncncc3/C=C/c3cn[nH]c3)cc2Cl)c1
≤ 10	Fc1cccc(COc2ccc(Nc3ncncc3C#Cc3ccccc3)cc2Cl)c1
≤ 10	CC(C)(C)OC(=O)NCc1cccc(C#Cc2cncnc2Nc2ccc(OCc3cccc(F)c3)c(Cl)c2)c1
≤ 10	Fc1cccc(COc2ccc(Nc3ncncc3/C=C/c3cccs3)cc2Cl)c1
< 0.1	Fc1cccc(COc2ccc(Nc3ncncc3/C=C/c3ccsc3)cc2Cl)c1
≤ 10	NCCC(=O)Nc1cccc(C#Cc2cncnc2Nc2ccc(OCc3cccc(F)c3)c(Cl)c2)c1
≤ 10	CC(=O)NCCNCc1cccc(C#Cc2cncnc2Nc2ccc(OCc3cccc(F)c3)c(Cl)c2)n1
< 0.1	Fc1cccc(COc2ccc(Nc3ncncc3/C=C/c3ccccc3)cc2Cl)c1
< 0.1	Nc1cccc(C#Cc2cncnc2Nc2ccc(OCc3cccc(F)c3)c(Cl)c2)n1
< 0.1	Fc1cccc(COc2ccc(Nc3ncncc3C#Cc3cccc(CN4CCCCC4)n3)cc2Cl)c1
≤ 10	COCCNCc1cccc(C#Cc2cncnc2Nc2ccc(OCc3cccc(F)c3)c(Cl)c2)n1
≤ 10	CC(=O)Nc1cccc(C#Cc2cncnc2Nc2ccc3[nH]c(Cc4ccccc4)nc3c2)c1

IC50 [µM]	SMILES
≤ 10	CC(=O)Nc1cccc(C#Cc2cncnc2Nc2ccc(Cc3ccccc3)cc2)c1
≤ 10	CN(CCO)Cc1cccc(C#Cc2cncnc2Nc2ccc(OCc3cccc(F)c3)c(Cl)c2)n1
≤ 10	C(#Cc1cncnc1Nc1ccc2c(ccn2Cc2ccccc2)c1)c1ccccc1
≤ 10	CS(=O)(=O)CC(=O)Nc1cccc(C#Cc2cncnc2Nc2ccc(OCc3cccc(F)c3)c(Cl)c2)c1
≤ 10	OCc1ccc(C#Cc2cncnc2Nc2ccc(OCc3cccc(F)c3)c(Cl)c2)o1
0.1 to 1	C(=C\c1cncnc1Nc1ccc2c(cnn2Cc2ccccc2)c1)/c1cn[nH]c1
≤ 10	COCCOCC(=O)Nc1cccc(C#Cc2cncnc2Nc2ccc(OCc3cccc(F)c3)c(Cl)c2)c1
≤ 10	Cn1cncc1C#Cc1cncnc1Nc1ccc(OCc2cccc(F)c2)c(Cl)c1
≤ 10	Fc1cccc(COc2ccc(Nc3ncncc3C#Cc3cccc(CN4CCCC4)n3)cc2Cl)c1
≤ 10	Fc1cccc(COc2ccc(Nc3ncncc3C#Cc3cccs3)cc2Cl)c1
≤ 10	C(=C\c1cncnc1Nc1ccc(Oc2ccccc2)cc1)/c1ccccc1
≤ 10	C(=C\c1cncnc1Nc1ccc2c(cnn2Cc2ccccc2)c1)/c1cccnc1
≤ 10	O=C(Nc1cccc(C#Cc2cncnc2Nc2ccc(OCc3cccc(F)c3)c(Cl)c2)n1)C(F)(F)Cl
≤ 10	Fc1cccc(COc2ccc(Nc3ncncc3C#Cc3cncnc3)cc2Cl)c1
≤ 10	Nc1ccc(C#Cc2cncnc2Nc2ccc(OCc3cccc(F)c3)c(Cl)c2)cn1
≤ 10	Fc1cccc(COc2ccc(Nc3ncncc3C#Cc3cccc(CNCc4ccccc4)n3)cc2Cl)c1
≤ 10	Oc1cccnc1/C=C/c1cncnc1Nc1ccc2c(cnn2Cc2ccccc2)c1
≤ 10	CNCc1cccc(C#Cc2cncnc2Nc2ccc(OCc3cccc(F)c3)c(Cl)c2)n1
< 0.1	O=C(NCCN1CCOCC1)NCc1cccc(C#Cc2cncnc2Nc2ccc(OCc3cccc(F)c3)c(Cl)c2)n1
> 1	COCc1cccc(C#Cc2cncnc2Nc2ccc(OCc3cccc(F)c3)c(Cl)c2)n1
≤ 10	CC(=O)Nc1cccc(C#Cc2cncnc2Nc2ccc(Oc3ccccc3)cc2)c1
≤ 10	CNC(=O)NCc1cccc(C#Cc2cncnc2Nc2ccc(OCc3cccc(F)c3)c(Cl)c2)n1
